Experimental findings from patent publication EP4806898A1, “HETEROARYL DERIVATIVE COMPOUND AND USE THEREOF” (Voronoi Inc., priority 2023, dated 2025) are described below.

A value given as a limit tells only on which side of the number the result lay.

What is called ΔTm is the shift of the melting midpoint relative to a reference. One may read the GI50 as the concentration at which growth is held to half of that of the control.

The target in one test is T1, recombinant USP1 protein (Homo sapiens, UniProt O94782, DEL125-138/DEL229-408/DEL608-737).
T1 sequence (O94782 with tags, fused parts or gaps DEL125-138/DEL229-408/DEL608-737): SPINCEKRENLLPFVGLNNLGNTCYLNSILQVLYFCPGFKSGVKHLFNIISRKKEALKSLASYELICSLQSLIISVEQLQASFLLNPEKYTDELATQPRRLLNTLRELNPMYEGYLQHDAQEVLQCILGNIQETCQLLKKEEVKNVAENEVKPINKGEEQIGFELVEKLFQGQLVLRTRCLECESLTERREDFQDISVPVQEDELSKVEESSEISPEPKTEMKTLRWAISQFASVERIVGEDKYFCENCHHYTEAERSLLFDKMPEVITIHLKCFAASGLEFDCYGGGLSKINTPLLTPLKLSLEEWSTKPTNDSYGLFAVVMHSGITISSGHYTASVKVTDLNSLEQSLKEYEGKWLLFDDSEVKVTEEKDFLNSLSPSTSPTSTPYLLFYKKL
As to the kind of experiment: Binding affinity to recombinant USP1 protein by differential scanning fluorimetry. Particulars: compound 100 µM; 0.03 mg/mL USP1 (Δ1-66, Δ125-138, Δ229-408, Δ608-737); Tm with compound minus Tm with DMSO; read-out: ΔTm (°C). The method, boiled down: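 Thermal shift readout: ΔTm is the compound-well melting temperature less the DMSO-well value, measured by real-time PCR. Compounds tested at 100 µM final against 0.03 mg/mL truncated USP1 (Δ1-66, Δ125-138, Δ229-408, Δ608-737) in pH 8.0 Tris buffer containing 150 mM NaCl, 2% glycerol, 1 mM DTT.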

The subject of another test is UWB1.289 cells. Briefly: Cell proliferation inhibitory activity in BRCA1/2-mutant or HRD-positive cells (Cell Titer-Glo). The class given is cell-based. Particulars: UWB1289; UWB1.289 cells, 144 hours after compound treatment, Cell Titer-Glo, 1.5 nM to 10 µM; read-out: GI50 UWB1.289 BRCA1 mut. The method, boiled down:
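GI50 from CellTiter-Glo luminescence after 144 h compound exposure at 37 °C. Cells seeded at 1,000 per well in MEBM/RPMI1640 mix 16–24 h beforehand; […] from 10 µM down to 1.5 nM final (3-fold steps).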

`COc1ncnc(C2CC2)c1-c1ncc2cc(C(=O)N3CCCC3)n(Cc3ccc(-c4nc(C(F)(F)F)cn4C(C)C)cc3)c2n1` [Example 51, (2-(4-cyclopropyl-6-methoxypyrimid in-5-yl)-7-(4-(1-isopropyl-4-(trifluoromethyl)-1H-imidazol-2-yl)benzyl)-7H-pyrrolo[2,3-d]pyrimidin-6-yl)(pyrrolidin-1-yl)methanone]: the ΔTm at 100 µM at recombinant USP1 protein was greater than 5 °C. In addition, in the test on UWB1.289 cells, the GI50 was less than 100 nM.
On the same counts, the results for `CCN(CC)CCNC(=O)c1cc2cnc(-c3c(OC)ncnc3C3CC3)nc2n1Cc1ccc(-c2nc(C(F)(F)F)cn2C(C)C)cc1` [Example 52, 2-(4-cyclopropyl-6-methoxypyrimidin-5-yl)-N-(2-(diethylamino)ethyl)-7-(4-(1-isopropyl-4-(trifluoromethyl)-1H-imidazol-2-yl)benzyl)-7H-pyrrolo[2,3-d]pyrimidine-6-carboxamide] are greater than 5 °C and 100 to 500 nM.
For `COc1ncnc(C2CC2)c1-c1ncc2cc(C(=O)N3CC(N(C)C)C3)n(Cc3ccc(-c4nc(C(F)(F)F)cn4C(C)C)cc3)c2n1` [Example 53, (2-(4-cyclopropyl-6-methoxypyrimid in-5-yl)-7-(4-(1-isopropyl-4-(trifluoromethyl)-1H-imidazol-2-yl)benzyl)-7H-pyrrolo[2,3-d]pyrimidin-6-yl) (3-(dimethylamino)azetidin-1-yl)methanone], the ΔTm at 100 µM at recombinant USP1 protein was greater than 5 °C. Moreover, in the test on UWB1.289 cells, the GI50 was less than 100 nM.
As for `COc1ncnc(C2CC2)c1-c1ncc2cc(C(=O)N3CCN4CCCC4C3)n(Cc3ccc(-c4nc(C(F)(F)F)cn4C(C)C)cc3)c2n1` (stereo not drawn) [Example 55, (2-(4-cyclopropyl-6-methoxypyrimid in-5-yl)-7-(4-(1-isopropyl-4-(trifluoromethyl)-1H-imidazol-2-yl)benzyl)-7H-pyrrolo[2,3-d]pyrimidin-6-yl) (hexahydrop yrrolo[1,2-a]pyrazin-2 (1H) - yl)methanone], the ΔTm at 100 µM at recombinant USP1 protein was greater than 5 °C. Besides, the GI50 in the test with UWB1.289 cells was in the range of 100 to 500 nM.
Turning to `COc1ncnc(C2CC2)c1-c1ncc2cc(C(=O)N3CCOC4(CCC4)C3)n(Cc3ccc(-c4nc(C(F)(F)F)cn4C(C)C)cc3)c2n1` [Example 56, (2-(4-cyclopropyl-6-methoxypyrimid in-5-yl)-7-(4-(1-isopropyl-4-(trifluoromethyl)-1H-imidazol-2-yl)benzyl)-7H-pyrrolo[2,3-d]pyrimidin-6-yl) (5-oxa-8-azaspiro[3.5]nonan-8-yl)methanone], the ΔTm at 100 µM on recombinant USP1 protein is greater than 5 °C. Moreover, the GI50 with UWB1.289 cells lay in the range of 100 to 500 nM.
For the compound `CCN1CCN(C(=O)c2cc3cnc(-c4c(OC)ncnc4C4CC4)nc3n2Cc2ccc(-c3nc(C(F)(F)F)cn3C(C)C)cc2)CC1` [Example 57, (2-(4-cyclopropyl-6-methoxypyrimid in-5-yl)-7-(4-(1-isopropyl-4-(trifluoromethyl)-1H-imidazol-2-yl)benzyl)-7H-pyrrolo[2,3-d]pyrimidin-6-yl) (4-ethylpiperazin-1-yl)methanone], the ΔTm at 100 µM at recombinant USP1 protein is greater than 5 °C. Moreover, the GI50 with UWB1.289 cells is less than 100 nM.
On the same counts, the results for `COc1ncnc(C2CC2)c1-c1ncc2cc(C(=O)NC[C@H]3CCCN3)n(Cc3ccc(-c4nc(C(F)(F)F)cn4C(C)C)cc3)c2n1` [Example 58, (R) -2-(4-cyclopropyl-6-methoxypyrimidin-5-yl)-7-(4-(1-isopropyl-4-(trifluoromethyl)-1H-imidazol-2-yl)benzyl)-N-(pyrrolidin-2-ylmethyl)-7H-pyrrolo[2,3-d]pyrimidine-6-carboxamide] are greater than 5 °C and less than 100 nM.
On the same counts, the results for `C#CCNC(=O)c1cc2cnc(-c3c(OC)ncnc3C3CC3)nc2n1Cc1ccc(-c2nc(C(F)(F)F)cn2C(C)C)cc1` [Example 60, 2-(4-cyclopropyl-6-methoxypyrimidin-5-yl)-7-(4-(1-isopropyl-4-(trifluoromethyl)-1H-imidazol-2-yl)benzyl)-N-(prop-2-yn-1-yl)-7H-pyrrolo[2,3-d]pyrimidine-6-carboxamide] are greater than 5 °C and less than 100 nM.
Take `COc1ncnc(C2CC2)c1-c1ncc2cc(C(=O)NCC(C)(C)O)n(Cc3ccc(-c4nc(C(F)(F)F)cn4C(C)C)cc3)c2n1` [Example 61, 2-(4-cyclopropyl-6-methoxypyrimidin-5-yl)-N-(2-hydroxy-2-methylpropyl)-7-(4-(1-isopropyl-4-(trifluoromethyl)-1H-imidazol-2-yl)benzyl)-7H-pyrrolo[2,3-d]pyrimidine-6-carboxamide]: the ΔTm at 100 µM on recombinant USP1 protein is greater than 5 °C. The GI50 in the test on UWB1.289 cells is less than 100 nM.
For `C=CCCNC(=O)c1cc2cnc(-c3c(OC)ncnc3C3CC3)nc2n1Cc1ccc(-c2nc(C(F)(F)F)cn2C(C)C)cc1` [Example 64, N-(but-3-en-1-yl)-2-(4-cyclopropyl-6-methoxypyrimidin-5-yl)-7-(4-(1-isopropyl-4-(trifluoromethyl)-1H-imidazol-2-yl)benzyl)-7H-pyrrolo[2,3-d]pyrimidine-6-carboxamide], the ΔTm at 100 µM on recombinant USP1 protein is greater than 5 °C. Further, the GI50 in the test with UWB1.289 cells lay within 100 to 500 nM.
For `COc1ncnc(C2CC2)c1-c1ncc2cc(C(=O)N3C[C@H]4C[C@@H]3CO4)n(Cc3ccc(-c4nc(C(F)(F)F)cn4C(C)C)cc3)c2n1` [Example 65, ((1R,4R)-2-oxa-5-azabicyclo[2.2 .1]heptan-5-yl)(2-(4-cyclopropyl-6-methoxypyrimidin-5-yl)-7-(4-(1-isopropyl-4-(trifluoromethyl)-1H-imidazol-2-yl)benzyl)-7H-pyrrolo[2,3-d]pyrimidin-6-yl)methanone], the thermal shift (ΔTm) at 100 µM on recombinant USP1 protein is greater than 5 °C. Further, in the test with UWB1.289 cells, the GI50 was 100 to 500 nM.
As for `COc1ncnc(C2CC2)c1-c1ncc2cc(C(=O)NC[C@@H]3CCO3)n(Cc3ccc(-c4nc(C(F)(F)F)cn4C(C)C)cc3)c2n1` [Example 66, (S)-2-(4-cyclopropyl-6-methoxypyrimidin-5-yl)-7-(4-(1-isopropyl-4-(trifluoromethyl)-1H-imidazol-2-yl)benzyl)-N-(oxetan-2-ylmethyl)-7H-pyrrolo[2,3-d]pyrimidine-6-carboxamide], the ΔTm at 100 µM at recombinant USP1 protein is greater than 5 °C. Further, the GI50 in the test with UWB1.289 cells was less than 100 nM.
On the same counts, the results for `COc1ncnc(C2CC2)c1-c1ncc2cc(C(=O)N3CCCC(O)C3)n(Cc3ccc(-c4nc(C(F)(F)F)cn4C(C)C)cc3)c2n1` (stereo not drawn) [Example 67, (2-(4-cyclopropyl-6-methoxypyrimid in-5-yl)-7-(4-(1-isopropyl-4-(trifluoromethyl)-1H-imidazol-2-yl)benzyl)-7H-pyrrolo[2,3-d]pyrimidin-6-yl) (3-hydroxypiperid in-1-yl)methanone] are greater than 5 °C and less than 100 nM.
Regarding `CCn1cc(C(F)(F)F)nc1-c1ccc(Cn2c(C(=O)NC)cc3cnc(-c4c(OC)ncnc4C4CC4)nc32)cc1` [Example 68, 2-(4-cyclopropyl-6-methoxypyrimidin-5-yl)-7-(4-(1-ethyl-4-(trifluoromethyl)-1H-imidazol-2-yl)benzyl)-N-methyl-7H-pyrrolo[2,3-d]pyrimidine-6-carboxamide], the ΔTm at 100 µM at recombinant USP1 protein is greater than 5 °C. The GI50 in the test on UWB1.289 cells was less than 100 nM.
Take `COc1ncnc(C2CC2)c1-c1ncc2cc(C(=O)NC3CCN(C)CC3)n(Cc3ccc(-c4nc(C(F)(F)F)cn4C(C)C)cc3)c2n1` [Example 69, 2-(4-cyclopropyl-6-methoxypyrimidin-5-yl)-7-(4-(1-isopropyl-4-(trifluoromethyl)-1H-imidazol-2-yl)benzyl)-N-(1-methylpiperidin-4-yl)-7H-pyrrolo[2,3-d]pyrimidine-6-carboxamide]: the ΔTm at 100 µM at recombinant USP1 protein was greater than 5 °C. Moreover, the GI50 in the test on UWB1.289 cells was less than 100 nM.
